{"source": "patent US20190208800A1", "about": "“L-GLUTAMINE IN SWINE DIETS” (The United States of America, as represented by the …, priority 2018, published 2019)", "key": {"[1]": {"test": "Example 2: grow-finish growth performance (d 0 to d 125) until market", "format": "in vivo, pigs", "text": "(§1) In a larger example, three groups of post-weaning and post-transport pigs (each group n=160, total of 480 pigs, 50% male and 50% female) were fed on different diets to assess the effects of L-glutamine as a supplement in the diet in a production environment. The diets consisted primarily of corn and soybean meal as in Example 1. One group (Group A) was fed a standard swine feed in two phases containing a standard antibiotic supplement (400 g chlortetracycline and 35 g tiamulin/ton of feed), another group (GLN) was fed a standard swine feed in two phases containing 0.20% L-glutamine, and a third group (NA) was given a standard swine diet in two phases containing no antibiotics or immunomodulators. Otherwise, the diets for groups A, GLN, and NA were the same. The disparate diets were given to the different groups for 14 days post-weaning and transport, following which all three groups were on a common diet for the remainder of the trial. This experiment was conducted from Jul. 28, 2016 to Sep. 21, 2017. The pigs were followed all the way through market (i.e., day 125 post-weaning, being about 6 months of age). As stated above, the pigs were followed through to market-readiness at six months of age."}, "[2]": {"test": "Example 1: small-scale simulated transport of post-weaning pigs, 14-day diets", "format": "in vivo", "settings": "0.20% L-glutamine diet, 14 days post-weaning and simulated transport", "text": "In a small-scale example, three groups of post-weaning pigs were subjected to a simulated transport experience immediately post-weaning and then provided different diets to assess the effects of L-glutamine as a supplement in the diet. The details of the procedure are given in full in “Evaluating the behavior, growth performance, immune parameters, and intestinal morphology of weaned piglets after simulated transport and heat stress when antibiotics are eliminated from the diet or replaced with L-glutamine” by Johnson, J. S. and Lay Jr., D. C. in the Journal of Animal Science (2017, 95, 91-102), which is incorporated herein in its entirety by reference. In this experiment, the piglets were fed on disparate feeds for 14 days post-weaning and simulated transport, and then euthanized by CO2 exposure and exsanguination."}, "[3]": {"system": "tumor necrosis factor alpha (TNFα)", "test": "Example 3: tumor necrosis factor alpha in pigs' blood (FIG. 2)", "format": "in vivo", "settings": "blood samples; diets for 14 days after weaning and 12 h transport; vs no antibiotics", "protocol": "Error bars represent ±1 standard error of the mean (SEM). Letters (a, b) indicate statistically significant differences (P≤0.05) between dietary treatments. In a similar experiment to the one above in Example 2, an L-glutamine-containing diet was evaluated for pigs to determine how it affected their general health and productivity. The experiment was conducted under commercial production conditions using a total of 480 mixed-sex (50% male and 50% female) pigs. Pigs were weaned and then transported for 12 hours to the nursery facility. Once pigs arrived at the nursery facility they were provided 1 of 3 separate diets, those being no antibiotics or L-glutamine (NA); 0.20% L-glutamine (GLN); or dietary antibiotics (A) for 14 days. After the 14-day period all pigs were provided the same antibiotic-free diets until they reached market weight. Blood and intestinal samples were collected from pigs to determine whole body immune function and intestinal integrity. […] Specifically, blood samples from the pigs were tested for tumor necrosis factor alpha (TNFα), a pro-inflammatory cytokine, elevated levels of which can be indicative of systemic inflammation and immune system activation which can be detrimental to the health and productivity of pigs. A reduction in circulating TNFα would be indicative of a decreased whole body inflammatory response in pigs. […]"}, "[4]": {"test": "Example 2: nursery growth performance (d 0 to d 34 post-weaning) in a production environment", "format": "in vivo, pigs", "text": "as §1, with “age).” for “age). As stated above, the pigs were followed through to market-readiness at six months of age.”"}, "enteric disease": {"system": "enteric disease", "test": "Example 2: percentage of pigs treated for enteric disease (FIG. 1)", "format": "in vivo", "settings": "0.20% L-glutamine diet; Period 1 (d 0-14) and Period 2 (d 15-34) post-weaning and transport", "text": "Period 1 is 0-14 days post-weaning and transport and Period 2 is 15-34 days post-weaning and transport. Error bars represent ±1 standard error of the mean (SEM). Letters (a, b) indicate statistically significant differences (P≤0.05) between dietary treatments and symbols (*, #) indicate statistically significant differences (P≤0.05) between periods. In a larger example, three groups of post-weaning and post-transport pigs (each group n=160, total of 480 pigs, 50% male and 50% female) were fed on different diets to assess the effects of L-glutamine as a supplement in the diet in a production environment. The diets consisted primarily of corn and soybean meal as in Example 1. One group (Group A) was fed a standard swine feed in two phases containing a standard antibiotic supplement (400 g chlortetracycline and 35 g tiamulin/ton of feed), another group (GLN) was fed a standard swine feed in two phases containing 0.20% L-glutamine, and a third group (NA) was given a standard swine diet in two phases containing no antibiotics or immunomodulators. Otherwise, the diets for groups A, GLN, and NA were the same. […] Data were analyzed on a per pen basis and the assumptions of normality of error, homogeneity of variance, and linearity were confirmed post-hoc."}, "intestines": {"system": "intestines", "test": "Example 3: ratio of villus height to crypt depth in the intestines (FIG. 3)", "format": "in vivo, pigs", "settings": "intestinal samples; diets for 14 days after weaning and 12 h transport; compared to NA", "protocol": "Error bars represent ±1 standard error of the mean (SEM). Letters (x, y) indicate statistical tendencies (0.05<P≤0.10) between dietary treatments. In a similar experiment to the one above in Example 2, an L-glutamine-containing diet was evaluated for pigs to determine how it affected their general health and productivity. The experiment was conducted under commercial production conditions using a total of 480 mixed-sex (50% male and 50% female) pigs. Pigs were weaned and then transported for 12 hours to the nursery facility. Once pigs arrived at the nursery facility they were provided 1 of 3 separate diets, those being no antibiotics or L-glutamine (NA); 0.20% L-glutamine (GLN); or dietary antibiotics (A) for 14 days. After the 14-day period all pigs were provided the same antibiotic-free diets until they reached market weight. Blood and intestinal samples were collected from pigs to determine whole body immune function and intestinal integrity. […] In particular, intestinal samples from pigs were analyzed to determine the ratio of villus height to crypt depth in the intestines. Villus height to crypt depth ratio is a morphological measure of intestinal health and a greater ratio indicates an improvement in intestinal health. […] Improved intestinal health is essential for nutrient absorption and preventing pathogens from entering the body. […]"}, "[5]": {"settings": "d 0 to 14 post-weaning, diet treatment period"}, "[6]": {"settings": "d 0 to 34 post-weaning, overall nursery"}, "[7]": {"settings": "d 15 to 34 post-weaning, common diet period"}}, "note": "Marks after values point to notes of the source that are not given here.", "data": [{"smiles": "NC(=O)CC[C@H](N)C(=O)O", "note": "[GLN, L-glutamine]", "values": [{"measurement": "growth performance of piglets through the end of the nursery phase", "setting": "[1]; body weight at start of grow-finish phase vs no antibiotic pigs", "result": "effective in improving the growth performance of piglets through the end of the nursery phase"}, {"measurement": "Feed efficiency, gain: feed", "setting": "[1]; d 0 to 62 of grow-finish phase, common diet", "result": 0.46}, {"measurement": "Feed efficiency, gain: feed", "setting": "[1]; d 0 to 125 of grow-finish phase", "result": 0.38}, {"measurement": "d 62 body weight", "setting": "[1]; d 62 of grow-finish phase", "result": 65.02, "unit": "kg"}, {"measurement": "Feed efficiency, gain: feed", "setting": "[1]; d 62 to 125 of grow-finish phase, common diet", "result": 0.31}, {"measurement": "Final body weight", "setting": "[1]; d 125, market", "result": 121.73, "unit": "kg"}, {"measurement": "Initial body weight", "setting": "[1]; start of grow-finish phase (d 0), diets given 14 days post-weaning, then common diet", "result": "17.49^a kg"}, {"measurement": "effectiveness in other parameters", "setting": "[2]; vs antibiotics", "result": "approximately as effective as the antibiotics"}, {"measurement": "productivity", "setting": "[2]; vs non-antibiotic and antibiotic group", "result": "better productivity compared to the non-antibiotic and antibiotic group"}, {"measurement": "circulating TNFα", "setting": "[3]", "result": "reduced at a similar level"}, {"measurement": "overall nursery phase performance", "setting": "[4]; d 0-34 post-weaning, vs antibiotic pigs", "result": "performed similarly to the antibiotic pigs"}, {"measurement": "Average daily feed intake", "setting": "[4]; [5]", "result": "272.06^a g"}, {"measurement": "Average daily gain", "setting": "[4]; [5]", "result": "210.78^a g"}, {"measurement": "Feed efficiency, gain: feed", "setting": "[4]; [5]", "result": "0.79^ab"}, {"measurement": "Average daily feed intake", "setting": "[4]; [6]", "result": "517.08^xy g"}, {"measurement": "Average daily gain", "setting": "[4]; [6]", "result": "352.73^ab g"}, {"measurement": "Feed efficiency, gain: feed", "setting": "[4]; [6]", "result": "0.71^ab"}, {"measurement": "d 14 body weight", "setting": "[4]; d 14 post-weaning", "result": "8.50^a kg"}, {"measurement": "Average daily feed intake", "setting": "[4]; [7]", "result": 680.43, "unit": "g"}, {"measurement": "Average daily gain", "setting": "[4]; [7]", "result": 447.36, "unit": "g"}, {"measurement": "Feed efficiency, gain: feed", "setting": "[4]; [7]", "result": 0.66}, {"measurement": "d 34 body weight", "setting": "[4]; d 34 post-weaning", "result": "17.49^ab kg"}, {"measurement": "feed intake, average daily gain, and final body weight compared to the non-antibiotic group", "setting": "[4]; diet treatment period, d 0-14 post-weaning", "result": "significantly higher"}, {"measurement": "requirement for injectable therapeutic antibiotics for enteric disease", "setting": "enteric disease", "result": "the same requirement for injectable therapeutic antibiotics for enteric disease as the piglets fed the antibiotics"}, {"measurement": "villus height to crypt depth ratio", "setting": "intestines", "result": "greater"}]}]}
